From US20250332173A1, “COMPOUNDS AND METHODS FOR MODULATING NUCLEIC ACID SPLICING” (REMIX THERAPEUTICS INC., priority 2021, published 2025)
Counter-ions that a name gives are not always drawn.

Experiments:
MYB = test: HiBiT protein abundance assay, MYB HiBiT K562 cell line; format: cell-based, human; details: HiBiT K562 cell line, 24 hours, top dose 10 μM; read-out: Effect on protein abundance, MYB (IC50 category)
Outline: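 K562 knock-in lines with endogenous HiBiT-tagged target, 10,000 cells/well in IMDM + FBS, treated 24 h at 37° C with 10-point 3-fold dilutions (top 10 μM final; DMSO ≤0.25%). Lytic Nano-Glo HiBiT luminescence normalized to untagged K562 baseline and DMSO controls; IC50 = concentration giving 50% abundance via four-parameter fit.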

Target C = test: RT-qPCR splicing assay panel, Target C canonical junction (CJ) mRNA; format: cell-based, human; details: Homo sapiens; Table 5 panel; canonical junction qPCR; compound concentration having 50% response in CJ decrease; read-out: Target C IC50 (decrease in CJ mRNA levels)
Outline: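 Canonical exon-exon junction transcript levels measured by one-step RT-qPCR of cell lysates, normalized to a housekeeping gene (GAPDH, GUSB or PPIA). Cells used were A673 or K562, exposed for 24 h to compound in 11-point, 3-fold series from 10 uM, with final DMSO at or below 0.25%.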

[1] = test system: K562 (human chronic myelogenous leukemia) cells; test: Cell Titer Glo 2.0 cell viability assay; format: cell-based; details: Homo sapiens, K562, 72 h, K562 cells, 72 hours, Cell Titer Glo 2.0; read-out: K562 GI50
Protocol: Compounds described herein were screened for toxicity in K562 (human chronic myelogenous leukemia) cells using a Cell Titer Glo 2.0 assay.
Cells were plated at 500 cells/well (K562 cells) in 45 μL of IMDM supplemented with 1000 FBS in a 384-well opaque plate. Wells containing only medium were used as a blank control. Test compounds (e.g., compounds ofFormula (I), (II), (III), (IV), (V), (VI), (VII), (VIII), and (IX)) were first serially diluted in DMSO then diluted 1:100 with IMDM+10% FBS. The final concentration of DMSO was 0.1% in each well. The cells were incubated for 72 hours at 37° C. and 500 CO2 before assaying with Cell Titer Glo 2.0 reagent.

IC50 (MYB)	IC50 (Target C)	GI50 [1]	Compound
1000 to 10000 nM	> 10000 nM	1000 to 10000 nM	Cc1cc(-c2ccc3c(=O)n(N4CCN(C)CC4)cnc3c2)cc2cn(C)nc12 [Compound 175]
100 to 1000 nM	1000 to 10000 nM	1000 to 10000 nM	Cc1cn2nc(-c3ccc4c(=O)n(C5CCN(C)CC5)cnc4c3)cc(C)c2n1 [Compound 176]
> 10000 nM	1000 to 10000 nM	> 10000 nM	CN1CCC(c2ccc3c(=O)n(-c4ccc5nn(C)cc5c4)cnc3c2)CC1 [Compound 177]
> 10000 nM	> 10000 nM	> 10000 nM	CN1CCN(c2ccc3c(=O)n(-c4ccc5cn(C)nc5c4)cnc3c2)CC1 [Compound 178]
> 10000 nM	> 10000 nM	> 10000 nM	Cc1cc(-c2ccc3c(=O)n(C4CC(C)(C)NC(C)(C)C4)cnc3n2)cc2cn(C)nc12 [Compound 179]
< 100 nM	100 to 1000 nM	100 to 1000 nM	Cc1cn2nc(-c3ccc4c(=O)n(C5CCNCC5)cnc4c3)cc(C)c2n1 [Compound 181]
1000 to 10000 nM	1000 to 10000 nM	1000 to 10000 nM	Cc1cc(-c2ccc3c(=O)n(C4CCNC5(CC5)C4)ncc3c2)cc2cn(C)nc12 (stereo not drawn) [Compound 512]
1000 to 10000 nM	1000 to 10000 nM	1000 to 10000 nM	Cc1nc2c(C)cc(-c3ccc4c(=O)n(C5CCNC6(CC6)C5)ncc4c3)cc2o1 (stereo not drawn) [Compound 513]
< 100 nM	< 100 nM	< 100 nM	COc1cc(-c2ccc3c(=O)n(C4CCNCC4)ccc3c2)nn2cc(C)nc12 [Compound 514, 6-(8-methoxy-2-methyl-imidazo[1,2-b]pyridazin-6-yl)-2-(4-piperidyl) isoquinolin-1-one; hydrochloride]
1000 to 10000 nM	1000 to 10000 nM	1000 to 10000 nM	Cc1cn2nc(-c3ccc4c(=O)n(C5CCN(CCF)CC5)ncc4c3)cc(C)c2n1 [Compound 515]
1000 to 10000 nM	1000 to 10000 nM	1000 to 10000 nM	Cc1cn2nc(-c3ccc4c(=O)n(C5CCNCC5)ccc4c3)cc(C(=O)O)c2n1 [Compound 516, 2-methyl-6-[1-oxo-2-(4-piperidyl)-6-isoquinolyl]imidazo[1,2-b]pyridazine-8-carboxylic acid]
100 to 1000 nM	1000 to 10000 nM	1000 to 10000 nM	COC(=O)c1cc(-c2ccc3c(=O)n(C4CCNCC4)ccc3c2)nn2cc(C)nc12 [Compound 517, methyl 2-methyl-6-[1-oxo-2-(4-piperidyl)-6-isoquinolyl]imidazo[1,2-b]pyridazine-8-carboxylate]
1000 to 10000 nM	> 10000 nM	1000 to 10000 nM	CNC(=O)c1cc(-c2ccc3c(=O)n(C4CCNCC4)ccc3c2)nn2cc(C)nc12 [Compound 518, N, 2-dimethyl-6-[1-oxo-2-(4-piperidyl)-6-isoquinolyl]imidazo[1,2-b]pyridazine-8-carboxamide]
< 100 nM	< 100 nM	< 100 nM	Cc1cn2nc(-c3ccc4c(=O)n(C5CCNCC5)ccc4c3)cc(Oc3ccccc3)c2n1 [Compound 519, 6-(2-methyl-8-phenoxy-imidazo[1,2-b]pyridazin-6-yl)-2-(4-piperidyl)isoquinolin-1-one]
100 to 1000 nM	1000 to 10000 nM	1000 to 10000 nM	Cc1cn2nc(-c3ccc4c(=O)n(C5CCNCC5)ccc4c3)cc(CC#N)c2n1 [Compound 520, 2-[2-methyl-6-[1-oxo-2-(4-piperidyl)-6-isoquinolyl]imidazo[1,2-b]pyridazin-8-yl]acetonitrile]
1000 to 10000 nM	1000 to 10000 nM	1000 to 10000 nM	Cn1ccc2c(cnn2-c2ccc3c(=O)n(C4CCNCC4)ccc3c2)c1=O [Compound 521]
1000 to 10000 nM	> 10000 nM	1000 to 10000 nM	Cn1ccc2nn(-c3ccc4c(=O)n(C5CCNCC5)ccc4c3)cc2c1=O [Compound 522, 6-{5-methyl-4-oxopyrazolo[4,3-c]pyridin-2-yl}-2-(piperidin-4-yl)isoquinolin-1-one]
1000 to 10000 nM	> 10000 nM	1000 to 10000 nM	Cc1cn2nc(-c3ccc4c(=O)n(C5CCNCC5)ccc4c3)cc(C(N)=O)c2n1 [Compound 523, 2-methyl-6-[1-oxo-2-(4-piperidyl)-6-isoquinolyl]imidazo[1,2-b]pyridazine-8-carboxamide]
> 10000 nM	> 10000 nM	> 10000 nM	Cc1cn2nc(-c3ccc4c(=O)n(C5CCNCC5)ccc4c3)cc(C(=O)N(C)C)c2n1 [Compound 524, N, N, 2-trimethyl-6-[1-oxo-2-(4-piperidyl)-6-isoquinolyl]imidazo[1,2-b]pyridazine-8-carboxamide]

IC50 (MYB)	IC50 (Target C)	GI50 [1]	Compound
< 100 nM	100 to 1000 nM	100 to 1000 nM	Cc1cn2nc(-c3ccc4c(=O)n(C5CCNCC5)ccc4c3)cc(CO)c2n1 [Compound 525, 6-[8-(hydroxymethyl)-2-methyl-imidazo[1,2-b]pyridazin-6-yl]-2-(4-piperidyl) isoquinolin-1-one]
< 100 nM	1000 to 10000 nM	100 to 1000 nM	Cc1cn2nc(-c3ccc4c(=O)n(C5CCNCC5)ccc4c3)cc(OCc3ccccc3)c2n1 [Compound 526, 6-(8-benzyloxy-2-methyl-imidazo[1,2-b]pyridazin-6-yl)-2-(4-piperidyl) isoquinolin-1-one]
100 to 1000 nM	1000 to 10000 nM	1000 to 10000 nM	COC(=O)Cc1cc(-c2ccc3c(=O)n(C4CCNCC4)ccc3c2)nn2cc(C)nc12 [Compound 527]
1000 to 10000 nM	1000 to 10000 nM	1000 to 10000 nM	Cc1cn2nc(-c3ccc4c(=O)n(C5CCNCC5)ccc4c3)cc(CC(N)=O)c2n1 [Compound 528, 2-(2-methyl-6-(1-oxo-2-(piperidin-4-yl)-1,2-dihydroisoquinolin-6-yl)imidazo[1,2-b]pyridazin-8-yl) acetamide]
100 to 1000 nM	1000 to 10000 nM	1000 to 10000 nM	CCOC(=O)c1cc(-c2ccc3c(=O)n(C4CCNCC4)ccc3c2)nn2cc(C)nc12 [Compound 529, ethyl 2-methyl-6-[1-oxo-2-(4-piperidyl)-6-isoquinolyl]imidazo[1,2-b]pyridazine-8-carboxylate]
> 10000 nM	> 10000 nM	> 10000 nM	Cn1cc2c(=O)n(-c3ccc4c(=O)n(C5CCNCC5)ccc4c3)ccc2n1 [Compound 530, 6-{2-methyl-4-oxopyrazolo[4,3-c]pyridin-5-yl}-2-(piperidin-4-yl)isoquinolin-1-one]
< 100 nM	100 to 1000 nM	100 to 1000 nM	Cc1cn2nc(-c3ccc4c(=O)n(C5CCNCC5)ccc4c3)cc(CC(=O)O)c2n1 [Compound 531, 2-[2-methyl-6-[1-oxo-2-(4-piperidyl)-6-isoquinolyl]imidazo[1,2-b]pyridazin-8-yl]acetic acid]
< 100 nM	1000 to 10000 nM	100 to 1000 nM	Cc1cn2nc(-c3ccc4c(=O)n(C5CCNCC5)ccc4c3)cc(CCO)c2n1 [Compound 533, 6-[8-(2-hydroxyethyl)-2-methyl-imidazo[1,2-b]pyridazin-6-yl]-2-(4-piperidyl)isoquinolin-1-one]
100 to 1000 nM	1000 to 10000 nM	1000 to 10000 nM	CNC(=O)Cc1cc(-c2ccc3c(=O)n(C4CCNCC4)ccc3c2)nn2cc(C)nc12 [Compound 534, N-methyl-2-[2-methyl-6-[1-oxo-2-(4-piperidyl)-6-isoquinolyl]imidazo[1,2-b]pyridazin-8-yl]acetamide]
1000 to 10000 nM	> 10000 nM	1000 to 10000 nM	Cc1cn2nc(-c3ccc4c(=O)n(C5CCNCC5)ccc4c3)cc(Cc3nnc[nH]3)c2n1 [Compound 535, 6-[2-methyl-8-(4H-1,2,4-triazol-3-ylmethyl)imidazo[1,2-b]pyridazin-6-yl]-2-(4-piperidyl) isoquinolin-1-one]
> 10000 nM	> 10000 nM	> 10000 nM	Cc1cn2nc(-c3ccc4c(=O)n(C5CCNCC5)ccc4c3)cc(Cc3nnn[nH]3)c2n1 [Compound 536, 6-[2-methyl-8-(1H-tetrazol-5-ylmethyl)imidazo[1,2-b]pyridazin-6-yl]-2-(4-piperidyl) isoquinolin-1-one]
100 to 1000 nM	100 to 1000 nM	100 to 1000 nM	CCN1CCC(n2ncc3cc(-c4cc(C)c5nc(C)cn5n4)cc(F)c3c2=O)CC1 [Compound 537]
100 to 1000 nM	100 to 1000 nM	100 to 1000 nM	Cc1cn2nc(-c3cc(F)c4c(=O)n(C5CCN(CCF)CC5)ncc4c3)cc(C)c2n1 [Compound 538]
< 100 nM	100 to 1000 nM	100 to 1000 nM	Cc1cn2nc(-c3cc(F)c4c(=O)n(C5CCN(C)CC5)ncc4c3)cc(C)c2n1 [Compound 539]
< 100 nM	< 100 nM	< 100 nM	Cc1cn2nc(-c3cc(F)c4c(=O)n(C5CCNCC5)ncc4c3)cc(C)c2n1 [Compound 540]
< 100 nM	< 100 nM	< 100 nM	Cc1cn2nc(-c3cc(O)c4c(=O)n(C5CCNCC5)ncc4c3)cc(C)c2n1 [Compound 541]
< 100 nM	100 to 1000 nM	100 to 1000 nM	CCN1CCC(n2ncc3cc(-c4cc(C)c5nc(C)cn5n4)cc(O)c3c2=O)CC1 [Compound 542]
100 to 1000 nM	100 to 1000 nM	100 to 1000 nM	Cc1cn2nc(-c3cc(O)c4c(=O)n(C5CCN(C)CC5)ncc4c3)cc(C)c2n1 [Compound 543]

Compound	IC50 (MYB)	IC50 (Target C)	GI50 [1]
CN(c1ccc2c(=O)n(-c3ccc4nn(C)cc4c3)cnc2c1)C1CCNCC1 [Compound 180]	> 10000 nM	1000 to 10000 nM	> 10000 nM
